Patent US20070219180A1, “Muscle Relaxtion Accelerator and Therapeutic Agent for Muscular Tissue Diseases Such as Muscle Relaxation Failure” (priority 2004, published 2007)
Where “and” joins values, the source holds several entries; their conditions need not be identical. Identical values can stand only once.

Test system: white rabbits
Experiment: Experiment 10: effect of the compound on cardiac rate and PQ interval on the electrocardiogram
Type: in vivo, rabbit
Conditions: for Cardiac rate: listed as the test compound; for Cardiac rate relative to before administration (100%) / PQ interval relative to before administration (100%): before administration (defined as 100%)
Experimental: In this experiment, the 1-hydrochloride of the compound, 4-[3-(4-benzylpiperidin-1-yl)propionyl]-7-methoxy-2,3,4,5-tetrahydro-1,4-benzothiazepine 1-hydrochloride (hereinafter called the compound) was used as the 1,4-benzothiazepine derivative or pharmaceutically acceptable salt thereof.
Five white rabbits (weight: 2.7-2.9 kg) were used in this experiment: a rabbit (weight 2.8 kg, Control 1) that was administered control solution, a rabbit (weight 2.7 kg, Test 10) that received the compound at 0.04 mg/kg/min, a rabbit (weight 2.7 kg, Test 11) that received the compound at 0.04 mg/kg/min, a rabbit (weight 2.9 kg, Test 12) that received the compound at 0.4 mg/kg/min, and a rabbit (weight 2.8 kg, Test 13) that received the compound at 0.4 mg/kg/min.
Each rabbit was anesthetized with a single intravenous injection of 20 mg/kg methohexital sodium under artificial respiration (Type AR1 Narishige Group) using endotracheal intubation. Subsequently, α-chloralose was injected into the ear veins at 90 mg/kg/20 min. A DMSO solution of the compound was prepared by dissolving 100 mg of the compound in 1 ml of dimethylsulfoxide (DMSO), and stored at 4° C.
In this experiment, injection catheters for administration of the compound and other drugs were inserted into the right external jugular veins of the rabbits, and microchip catheters (SPC-320, Millar) for blood pressure measurement were inserted via the right common arteries. A 2-lead electrocardiogram was examined, and blood pressure, cardiac rate, and electrocardiogram of the rabbits were monitored for 10 minutes. When the data stabilized, the electrocardiogram, systolic pressure and diastolic pressure of each rabbit were recorded on a personal computer via an A/D converter. The Control rabbit was administered 5% dextrose solution containing 0.1% DMSO as a control solution for 10 minutes at 0.1 ml/min. Test 10 and 11 rabbits were administered 5% dextrose containing the compound at 0.1 ml/min, and then the compound at an infusion rate of 0.04 mg/kg/min. Test 12 and 13 were administered 5% dextrose containing the compound at 0.1 ml/min, and then the compound at an infusion rate of 0.4 mg/kg/min.
Cardiac rate and PQ interval in the Control and Test rabbits were measured before administration of the test solution, and 5 and 10 minutes after administration. The PQ interval, which is the time interval between the beginning of the P-wave and the beginning of next Q wave, reflects the conduction velocity of electrical stimulation from the atrium to the ventricle. The cardiac rates before administration of the test solution were defined as 100%, and data for the cardiac rate after administration of the compound are shown in Table 10.

[1] = infusion rate 0.04 mg/kg/min, after 5 minutes
[2] = infusion rate 0.04 mg/kg/min, after 10 minutes
[3] = infusion rate 0.04 mg/kg/min, before administration
[4] = infusion rate 0.4 mg/kg/min, after 5 minutes
[5] = infusion rate 0.4 mg/kg/min, after 10 minutes
[6] = infusion rate 0.4 mg/kg/min, before administration

For `COc1ccc2c(c1)CN(C(=O)CCN1CCC(Cc3ccccc3)CC1)CCS2` [the compound, 4-[3-(4-benzylpiperidine-1-yl)propionyl]-7-methoxy-2,3,4,5-tetrahydro-1,4-benzothiazepine], the “Increase of PQ interval compared to before administration” value (0.4 mg/kg/min, 10 minutes after administration, Test 12 and Test 13 rabbits) was “approximately 50%”, the PQ interval [1] was 73 milliseconds and 66 milliseconds and the Cardiac rate [1] was 289 min⁻¹ and 283 min⁻¹. For the same compound, the PQ interval [2] was 74 milliseconds and 68 milliseconds, the Cardiac rate [2] was 286 min⁻¹ and 281 min⁻¹ and the PQ interval [3] was 71 milliseconds and 64 milliseconds. For the same compound, the “Cardiac rate relative to before administration (100%)” value (infusion rate 0.04 mg/kg/min) was “(100%)”, the “PQ interval relative to before administration (100%)” value (infusion rate 0.04 mg/kg/min) was “(100%)” and the Cardiac rate [3] was 297 min⁻¹ and 286 min⁻¹. For the same compound, the PQ interval [4] was 92 milliseconds and 82 milliseconds, the Cardiac rate [4] was 350 min⁻¹ and 311 min⁻¹ and the PQ interval [5] was 107 milliseconds and 103 milliseconds. For the same compound, the Cardiac rate [5] was 157 min⁻¹ and 98 min⁻¹, the PQ interval [6] was 69 milliseconds and 68 milliseconds and the “Cardiac rate relative to before administration (100%)” value (infusion rate 0.4 mg/kg/min) was “(100%)”. For the same compound, the “PQ interval relative to before administration (100%)” value (infusion rate 0.4 mg/kg/min) was “(100%)” and the Cardiac rate [6] was 372 min⁻¹ and 327 min⁻¹.
